Data taken from patent publication US20240254119A1 (THIRD HARMONIC BIO, INC., priority 2022, published 2024).

What was measured:
[1] = Kinetic solubility assay; assay type: physicochemical; details: kinetic solubility, 50 mM PB (pH 7.4), shaken 24 hours at RT
Procedure, shortened: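 Test compounds from 10 mM DMSO stock were diluted in 50 mM phosphate buffer, pH 7.4, and shaken for 24 h at RT. After PTFE filtration and centrifugation, filtrate concentration was quantified by UPLC-UV/HPLC-UV against a standard curve.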

[2] = target: T1, PDGFRα (Homo sapiens, UniProt P16234); test: Caliper biochemical assay, PDGFRα; details: Table 6
T1 construct: purchased Millipore 14-467 (lot 26321_ACTI)
Procedure, shortened: (§1)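 Kinase, FAM-labelled peptide substrate, ATP and Mn^2+ incubated with compound for 3 h at 25° C, then quenched with EDTA buffer. Substrate and phosphorylated product separated by microfluidic electrophoresis and quantified by fluorescence intensity; no-enzyme wells define 100% inhibition.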

[3] = target: T2, BCRP (BCRP-MDCKII monolayer) (Homo sapiens, UniProt Q9UNQ0); test: MDCKII-BCRP bidirectional transport assay; assay type: in vitro ADME; details: for MDCK-BCRP: Papp A-B: apical to basolateral
T2 construct: host or cells: MDCKII (canine kidney) cells
T2 sequence (Q9UNQ0 1-655): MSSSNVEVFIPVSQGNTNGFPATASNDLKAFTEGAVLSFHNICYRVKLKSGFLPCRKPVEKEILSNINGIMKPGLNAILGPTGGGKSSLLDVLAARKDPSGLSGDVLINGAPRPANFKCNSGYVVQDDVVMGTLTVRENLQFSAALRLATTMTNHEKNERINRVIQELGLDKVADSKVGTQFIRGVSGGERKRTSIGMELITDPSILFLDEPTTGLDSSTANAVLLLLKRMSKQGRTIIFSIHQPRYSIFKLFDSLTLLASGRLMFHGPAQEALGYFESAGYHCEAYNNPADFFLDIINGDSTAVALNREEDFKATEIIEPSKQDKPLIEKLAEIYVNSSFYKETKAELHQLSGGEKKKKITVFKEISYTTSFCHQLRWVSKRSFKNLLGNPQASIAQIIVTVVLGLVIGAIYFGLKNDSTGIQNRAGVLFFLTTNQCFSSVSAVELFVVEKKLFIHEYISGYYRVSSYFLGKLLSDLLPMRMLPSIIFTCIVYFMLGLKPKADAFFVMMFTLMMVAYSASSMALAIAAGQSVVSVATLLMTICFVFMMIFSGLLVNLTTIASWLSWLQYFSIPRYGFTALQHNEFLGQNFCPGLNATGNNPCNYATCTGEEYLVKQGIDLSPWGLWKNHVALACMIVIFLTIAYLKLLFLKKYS
Procedure, shortened: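 Bidirectional A→B and B→A transport across PreadyPort BCRP-MDCKII monolayers (days 12–15) was run in duplicate for 120 min at 37° C, 5% CO2 after a 15 min preincubation. Compound levels were measured by LC-MS/MS. Papp and recovery were calculated, with efflux ratio indicating transporter engagement.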

[4] = target: T3, wtKIT (Homo sapiens, UniProt P10721); test: Caliper biochemical assay, wtKIT; details: Table 6, read-out: KIT Biochemical IC50 avg
T3 construct: 1888289AM in the reaction mixtures
Procedure, shortened: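 Enzyme (5.0 nM wtKIT), 1 μM FAM-labelled peptide, 400 μM ATP and 10 mM MnCl2 in HEPES pH 7.5 with 1% DMSO, incubated 3 h at 25° C. EDTA quench; substrate and phosphoproduct separated by microfluidic electrophoresis and quantified by fluorescence.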

[5] = target: T4, CSF-1R (Homo sapiens, UniProt P07333); test: Caliper biochemical assay, CSF-1R; details: Table 6
T4 construct: purchased Invitrogen PV3249 (lot 662393N)
Procedure, shortened: as §1

T4 sequence (P07333 20-972): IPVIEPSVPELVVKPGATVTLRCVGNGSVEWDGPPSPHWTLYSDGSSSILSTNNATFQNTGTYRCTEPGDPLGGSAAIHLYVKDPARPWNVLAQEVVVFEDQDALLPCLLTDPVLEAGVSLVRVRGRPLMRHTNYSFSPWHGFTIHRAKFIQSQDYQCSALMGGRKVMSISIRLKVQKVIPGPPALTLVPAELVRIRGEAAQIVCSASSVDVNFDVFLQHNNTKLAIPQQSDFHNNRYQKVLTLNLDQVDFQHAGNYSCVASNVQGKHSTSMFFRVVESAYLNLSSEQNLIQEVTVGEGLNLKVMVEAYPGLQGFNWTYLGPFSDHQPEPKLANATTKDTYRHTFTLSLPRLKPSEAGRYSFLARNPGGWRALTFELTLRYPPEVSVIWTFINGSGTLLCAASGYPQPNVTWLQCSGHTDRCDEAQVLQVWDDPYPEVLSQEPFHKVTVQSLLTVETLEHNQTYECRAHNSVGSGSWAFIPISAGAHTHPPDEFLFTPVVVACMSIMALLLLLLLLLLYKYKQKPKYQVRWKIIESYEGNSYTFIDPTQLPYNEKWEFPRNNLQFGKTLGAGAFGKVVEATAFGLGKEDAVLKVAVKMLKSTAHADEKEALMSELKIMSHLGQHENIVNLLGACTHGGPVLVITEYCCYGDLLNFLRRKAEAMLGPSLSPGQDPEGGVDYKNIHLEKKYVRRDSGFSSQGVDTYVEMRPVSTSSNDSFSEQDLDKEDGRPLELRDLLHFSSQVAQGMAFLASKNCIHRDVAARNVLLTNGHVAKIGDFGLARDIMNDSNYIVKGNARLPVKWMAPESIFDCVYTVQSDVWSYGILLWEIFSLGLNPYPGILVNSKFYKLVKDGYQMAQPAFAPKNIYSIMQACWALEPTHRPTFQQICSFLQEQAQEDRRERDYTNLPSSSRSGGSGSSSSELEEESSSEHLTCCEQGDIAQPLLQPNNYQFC
T3 sequence (P10721 26-976): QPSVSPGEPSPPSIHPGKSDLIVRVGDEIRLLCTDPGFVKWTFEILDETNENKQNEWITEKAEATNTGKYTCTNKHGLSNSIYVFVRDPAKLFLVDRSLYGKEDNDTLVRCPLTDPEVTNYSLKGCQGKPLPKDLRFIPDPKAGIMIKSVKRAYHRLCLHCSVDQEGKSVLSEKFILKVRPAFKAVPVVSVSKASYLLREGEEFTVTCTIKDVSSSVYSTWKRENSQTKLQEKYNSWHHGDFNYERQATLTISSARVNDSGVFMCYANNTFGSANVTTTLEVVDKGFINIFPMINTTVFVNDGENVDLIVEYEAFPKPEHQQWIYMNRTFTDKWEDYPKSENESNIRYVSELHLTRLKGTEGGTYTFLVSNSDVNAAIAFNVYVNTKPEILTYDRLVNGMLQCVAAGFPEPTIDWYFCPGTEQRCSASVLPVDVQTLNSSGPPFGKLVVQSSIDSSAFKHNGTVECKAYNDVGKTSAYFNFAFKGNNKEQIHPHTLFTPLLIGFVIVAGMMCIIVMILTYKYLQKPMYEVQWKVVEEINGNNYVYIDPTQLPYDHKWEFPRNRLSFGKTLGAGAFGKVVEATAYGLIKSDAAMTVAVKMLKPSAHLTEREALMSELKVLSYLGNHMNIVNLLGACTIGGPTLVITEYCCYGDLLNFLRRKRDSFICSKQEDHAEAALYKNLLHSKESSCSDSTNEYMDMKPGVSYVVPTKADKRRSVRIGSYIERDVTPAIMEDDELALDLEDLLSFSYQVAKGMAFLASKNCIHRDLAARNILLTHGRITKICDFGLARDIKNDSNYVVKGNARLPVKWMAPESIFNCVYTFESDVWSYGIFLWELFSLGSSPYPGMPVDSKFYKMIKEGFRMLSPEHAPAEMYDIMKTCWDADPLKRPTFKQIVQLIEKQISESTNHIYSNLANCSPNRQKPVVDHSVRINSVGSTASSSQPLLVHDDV
T1 sequence (P16234 24-1089): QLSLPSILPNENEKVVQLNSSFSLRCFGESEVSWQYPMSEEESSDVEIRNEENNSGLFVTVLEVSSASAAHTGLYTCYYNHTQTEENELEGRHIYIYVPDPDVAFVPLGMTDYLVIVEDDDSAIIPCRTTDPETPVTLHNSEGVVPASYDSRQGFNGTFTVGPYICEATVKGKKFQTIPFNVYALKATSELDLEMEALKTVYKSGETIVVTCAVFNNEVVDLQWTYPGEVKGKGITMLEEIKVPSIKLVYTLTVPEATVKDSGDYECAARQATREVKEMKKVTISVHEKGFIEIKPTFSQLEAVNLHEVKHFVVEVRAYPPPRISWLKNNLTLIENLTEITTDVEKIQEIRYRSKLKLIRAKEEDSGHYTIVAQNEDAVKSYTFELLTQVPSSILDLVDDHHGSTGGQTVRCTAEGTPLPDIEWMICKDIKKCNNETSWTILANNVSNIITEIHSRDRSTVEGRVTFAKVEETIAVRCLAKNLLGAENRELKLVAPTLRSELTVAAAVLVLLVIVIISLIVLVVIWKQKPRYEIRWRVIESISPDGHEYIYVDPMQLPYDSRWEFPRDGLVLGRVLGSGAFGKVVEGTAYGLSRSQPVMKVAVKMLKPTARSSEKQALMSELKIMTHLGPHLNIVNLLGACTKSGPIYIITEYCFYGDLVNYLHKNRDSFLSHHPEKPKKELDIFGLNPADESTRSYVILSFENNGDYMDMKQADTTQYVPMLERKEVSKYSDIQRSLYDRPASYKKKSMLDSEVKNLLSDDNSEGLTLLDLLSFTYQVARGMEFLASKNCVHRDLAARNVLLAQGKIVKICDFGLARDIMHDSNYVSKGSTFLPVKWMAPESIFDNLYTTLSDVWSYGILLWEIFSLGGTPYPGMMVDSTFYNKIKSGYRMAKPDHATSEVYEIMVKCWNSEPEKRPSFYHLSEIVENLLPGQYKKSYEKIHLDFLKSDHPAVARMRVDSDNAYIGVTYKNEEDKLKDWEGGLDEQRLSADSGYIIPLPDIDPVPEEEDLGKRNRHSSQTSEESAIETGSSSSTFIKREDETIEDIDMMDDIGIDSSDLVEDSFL

Compound | Solubility (μM) [1] | IC50 [2] [nM] | MDCK-BCRP: Efflux Ratio [3] | MDCK-BCRP: Papp A-B [3] | IC50 [4] [nM] | IC50 [5] [nM]
Cc1ccc(-c2noc(C(C)O)n2)cc1NC(=O)c1cnc2ccccn12 (racemic) [Compound I-364] | * (a solubility greater than 50 μM) | 5000 to 30000 | 9.18 | 2.19 10^−6 cm/s | 50 to 500 | ≤ 50
Cc1nc(-c2ccc(C)c(NC(=O)c3cnc4ccc(N(C)C)cn34)c2)no1 [Compound I-205] | **** (a solubility less than or equal to 2 μM) | 50 to 500 | 1.66 | 23.5 10^−6 cm/s | ≤ 50 | ≤ 50
Cc1ccc(-c2noc(CC(=O)O)n2)cc1NC(=O)c1cnc2ccccn12 [Compound I-335] | * (a solubility greater than 50 μM) | 500 to 5000 | 0.37 | 1.99 10^−6 cm/s | 50 to 500 | 500 to 5000
Cc1ccc(-c2noc(C(C)NS(C)(=O)=O)n2)cc1NC(=O)c1cnc2ccccn12 (single isomer, unassigned) [Compound I-237] | ** (a solubility greater than 10 μM and less than or equal to 50 μM) | 5000 to 30000 | 11.5 | 1.66 10^−6 cm/s | 50 to 500 | 500 to 5000
COC(=O)N1CC(c2nc(-c3ccc(C)c(NC(=O)c4cnc5cc(OC[C@H](C)O)ccn45)c3)no2)C1 [Compound I-262] | ** (a solubility greater than 10 μM and less than or equal to 50 μM) | 50 to 500 | 46.5 | 0.54 10^−6 cm/s | ≤ 50 | ≤ 50
Cc1ccc(-c2noc(C3CCN3)n2)cc1NC(=O)c1cnc2ccccn12 (racemic) [Compound I-394] | * (a solubility greater than 50 μM) | 5000 to 30000 | 23.2 | 1.42 10^−6 cm/s | ≤ 50 | 50 to 500
COC(=O)N1CC(c2nc(-c3ccc(C)c(NC(=O)c4cnc5cc(O[C@@H](C)CO)ccn45)c3)no2)C1 (single isomer, unassigned) [Compound I-217] | ** (a solubility greater than 10 μM and less than or equal to 50 μM) | 50 to 500 | 28.1 | 0.86 10^−6 cm/s | ≤ 50 | ≤ 50
Cc1ccc(-c2noc(CC3CC(F)(F)C3)n2)cc1NC(=O)c1cnc2ccccn12 [Compound I-124] | **** (a solubility less than or equal to 2 μM) | 50 to 500 | 1.14 | 9.07 10^−6 cm/s | ≤ 50 | ≤ 50
Cc1ccc(-c2noc(CO)n2)cc1NC(=O)c1cnc2ccccn12 [Compound I-337] | * (a solubility greater than 50 μM) | 50 to 500 | 4.71 | 3.73 10^−6 cm/s | ≤ 50 | 50 to 500
Cc1ccc(-c2noc([C@H]3CC(F)(F)CN3)n2)cc1NC(=O)c1cnc2ccccn12 [Compound I-359] | * (a solubility greater than 50 μM) | 500 to 5000 | 7.14 | 4.68 10^−6 cm/s | ≤ 50 | 50 to 500
Cc1ccc(-c2noc(C3CC4(CCC4)C3)n2)cc1NC(=O)c1cnc2ccccn12 [Compound I-367] | **** (a solubility less than or equal to 2 μM) | ≤ 50 | 1.18 | 0.83 10^−6 cm/s | ≤ 50 | ≤ 50
COC(=O)N1CC(c2nc(-c3ccc(C)c(NC(=O)c4cnn5cc(C#N)ccc45)c3)no2)C1 [Compound I-204] | *** (a solubility greater than 2 μM and less than or equal to 10 μM) | 5000 to 30000 | 6.11 | 3.27 10^−6 cm/s | ≤ 50 | 50 to 500
Cc1ccc(-c2noc(C3CN(C(=O)CO)C3)n2)cc1NC(=O)c1cnc2ccccn12 [Compound I-287] | *** (a solubility greater than 2 μM and less than or equal to 10 μM) | 5000 to 30000 | 0.65 | 11.8 10^−6 cm/s | 50 to 500 | 5000 to 30000
Cc1nc(-c2ccc(C)c(NC(=O)c3cnc4ccccn34)c2)no1 [Compound I-360] | ** (a solubility greater than 10 μM and less than or equal to 50 μM) | 500 to 5000 | 1.52 | 9.54 10^−6 cm/s | ≤ 50 | 500 to 5000
Cc1ccc(-c2noc([C@H]3C[C@@H]3F)n2)cc1NC(=O)c1cnc2cc(N3CCC3)ccn12 [Compound I-295] | **** (a solubility less than or equal to 2 μM) | ≤ 50 | 1.58 | 6.12 10^−6 cm/s | ≤ 50 | ≤ 50
O=C(Nc1cc(-c2noc([C@H]3C[C@@H]3F)n2)ccc1Br)c1cnc2ccccn12 [Compound I-340] | **** (a solubility less than or equal to 2 μM) | 50 to 500 | 0.28 | 80.4 10^−6 cm/s | ≤ 50 | ≤ 50
O=C(Nc1cc(-c2noc([C@H]3C[C@@H]3F)n2)ccc1Cl)c1cnc2ccccn12 [Compound I-341] | **** (a solubility less than or equal to 2 μM) | 50 to 500 | 0.84 | 10.1 10^−6 cm/s | ≤ 50 | ≤ 50
CNC(=O)N1CC(c2nc(-c3ccc(C)c(NC(=O)c4cnc5ccccn45)c3)no2)C1 [Compound I-282] | ** (a solubility greater than 10 μM and less than or equal to 50 μM) | 5000 to 30000 | 28.1 | 0.55 10^−6 cm/s | ≤ 50 | 5000 to 30000
COC(=O)N1CC(c2nc(-c3ccc(C)c(NC(=O)c4cnc5cc(OC[C@@H](C)O)ccn45)c3)no2)C1 [Compound I-263] | * (a solubility greater than 50 μM) | 50 to 500 | 45.4 | 0.56 10^−6 cm/s | ≤ 50 | ≤ 50
Cc1nc(-c2ccc(Cl)c(NC(=O)c3cnc4ccccn34)c2)no1 [Compound I-172] | **** (a solubility less than or equal to 2 μM) | 500 to 5000 | 0.81 | 6.02 10^−6 cm/s | ≤ 50 | 50 to 500
CCCS(=O)(=O)N1CC(c2nc(-c3ccc(Cl)c(NC(=O)c4cnc5ccccn45)c3)no2)C1 [Compound I-220] | **** (a solubility less than or equal to 2 μM) | 5000 to 30000 | 1.17 | 26.4 10^−6 cm/s | ≤ 50 | 50 to 500
Cc1ccc(-c2noc([C@H]3CCC(=O)N3)n2)cc1NC(=O)c1cnc2ccccn12 (racemic) [Compound I-327] | * (a solubility greater than 50 μM) | 5000 to 30000 | 73.2 | 0.28 10^−6 cm/s | 50 to 500 | ≤ 50
COC(=O)N1CC(c2nc(-c3ccc(C)c(NC(=O)c4cnn5ccc(Br)cc45)c3)no2)C1 [Compound I-280] | **** (a solubility less than or equal to 2 μM) | 5000 to 30000 | 2.55 | 5.07 10^−6 cm/s | ≤ 50 | ≤ 50
